Data from patent US7138361B2, “Herbicidal heterocycles” (E. I. du Pont de Nemours and Company, priority 2000, dated 2006).

Assays:
Assay type in all cases: in vivo
corn (Zea mays) [1] = experiment: Test C preemergence; settings: for Plant response rating (0 to 100), Corn: Rate 500 g/ha, visual evaluation after 12 to 14 days
Summary of the method: (§1)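 Formulation: non-phytotoxic solvent mix incl. surfactant. Pre: applied right after planting. Post: 1–4-leaf seedlings. Read: visual 0–100, day 12–14, greenhouse.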

[2] = tested on: crabgrass (Digitaria sanguinalis); experiment: Test C preemergence; settings: for Plant response rating (0 to 100), Crabgrass: Rate 500 g/ha, visual evaluation after 12 to 14 days
Summary of the method: as §1

Nightshade = experiment: Test C preemergence
[3] = tested on: woolly cupgrass (Eriochloa villosa); experiment: Test C preemergence; settings: for Plant response rating (0 to 100), Cupgrass, Woolly: Rate 500 g/ha, visual evaluation after 12 to 14 days
Summary of the method: as §1

soybean (Glycine max) = experiment: Test C preemergence; settings: for Plant response rating (0 to 100), Soybean: Rate 500 g/ha, visual evaluation after 12 to 14 days
Summary of the method: as §1

[4] = tested on: velvetleaf (Abutilon theophrasti); experiment: Test C preemergence; settings: for Plant response rating (0 to 100), Velvetleaf: Rate 500 g/ha, visual evaluation after 12 to 14 days
Summary of the method: as §1

[5] = tested on: morningglory (Ipomoea hederacea); experiment: Test C preemergence; settings: for Plant response rating (0 to 100), Morningglory: Rate 500 g/ha, visual evaluation after 12 to 14 days
Summary of the method: as §1

[6] = tested on: common ragweed (Ambrosia elatior); experiment: Test C preemergence; settings: for Plant response rating (0 to 100), Ragweed, Common: Rate 500 g/ha, visual evaluation after 12 to 14 days
Summary of the method: as §1

[7] = tested on: goosegrass (Eleusine indica); experiment: Test C preemergence; settings: for Plant response rating (0 to 100), Goosegrass: Rate 500 g/ha, visual evaluation after 12 to 14 days
Summary of the method: as §1

kochia (Kochia scoparia) = experiment: Test C preemergence; settings: for Plant response rating (0 to 100), Kochia: Rate 500 g/ha, visual evaluation after 12 to 14 days
Summary of the method: as §1

[8] = tested on: lambsquarters (Chenopodium album); experiment: Test C preemergence; settings: for Plant response rating (0 to 100), Lambsquarters: Rate 500 g/ha, visual evaluation after 12 to 14 days
Summary of the method: as §1

[9] = tested on: cocklebur (Xanthium strumarium); experiment: Test C preemergence; settings: for Plant response rating (0 to 100), Cocklebur: Rate 500 g/ha, visual evaluation after 12 to 14 days
Summary of the method: as §1

[10] = tested on: johnsongrass (Sorghum halepense); experiment: Test C preemergence; settings: for Plant response rating (0 to 100), Johnsongrass: Rate 500 g/ha, visual evaluation after 12 to 14 days
Summary of the method: as §1

[11] = tested on: Surinam grass (Brachiaria decumbens); experiment: Test C preemergence; settings: for Plant response rating (0 to 100), Surinam grass: Rate 500 g/ha, visual evaluation after 12 to 14 days
Summary of the method: as §1

corn (Zea mays) [12] = experiment: Test B postemergence
Summary of the method: (§2)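 Pre: seeded pots sprayed, chemical in non-phytotoxic solvent/surfactant mix. Post: plants 2–18 cm, 1–4 leaf, same formulation. Greenhouse 13–15 d; visual % control vs untreated, 0–100 scale.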

[13] = tested on: velvetleaf (Abutilon theophrasti); experiment: Test B postemergence; settings: Rate 125 g/ha, scale 0 to 100, 0 no effect, 100 complete control
Summary of the method: as §2

[14] = tested on: lambsquarters (Chenopodium album); experiment: Test B postemergence; settings: Rate 125 g/ha, scale 0 to 100, 0 no effect, 100 complete control
Summary of the method: as §2

[15] = tested on: morning glory (Ipomoea hederacea); experiment: Test B postemergence; settings: Rate 125 g/ha, scale 0 to 100, 0 no effect, 100 complete control
Summary of the method: as §2

[16] = tested on: Surinam grass (Brachiaria decumbens); experiment: Test B postemergence
Summary of the method: as §2

[17] = tested on: barnyardgrass (Echinochloa crus-galli); experiment: Test B postemergence
Summary of the method: as §2

[18] = Rate 125 g/ha, scale 0 to 100, 0 no effect, 100 complete control
[19] = preemergence, Rate 62 g/ha, scale 0 to 100
[20] = preemergence, Rate 250 g/ha, scale 0 to 100, 0 no effect, 100 complete control
[21] = Rate 250 g/ha, scale 0 to 100, 0 no effect, 100 complete control
[22] = Rate 500 g/ha, scale 0 to 100, 0 is no effect, 100 is complete control, 13 to 15 days

## COc1cc(N2CCC(n3ccc(C(C)(C)C)n3)C2=O)ccc1Cl (stereo not shown) [Compound 117]
Corn (Zea mays) [1]; [18]
  Plant response rating, Corn: 30
Corn (Zea mays) [1]; [19]
  Plant response rating, Corn: 0
Corn (Zea mays) [1]; preemergence
  Plant response rating (0 to 100), Corn: 50
Corn (Zea mays) [1]; [20]
  Plant response rating, Corn: 45
[2]; [18]
  Plant response rating, Crabgrass: 100
[2]; [19]
  Plant response rating, Crabgrass: 100
[2]; preemergence
  Plant response rating (0 to 100), Crabgrass: 100
[2]; [20]
  Plant response rating, Crabgrass: 100
Nightshade; Rate 62 g/ha, scale 0 to 100
  Plant response rating, Nightshade: 100
Nightshade; [18]
  Plant response rating, Nightshade: 100
Nightshade; [21]
  Plant response rating, Nightshade: 100
[3]; [18]
  Plant response rating, Cupgrass, Woolly: 100
[3]; [19]
  Plant response rating, Cupgrass, Woolly: 80
[3]; preemergence
  Plant response rating (0 to 100), Cupgrass, Woolly: 100
[3]; [20]
  Plant response rating, Cupgrass, Woolly: 100
Soybean (Glycine max); [18]
  Plant response rating, Soybean: 100
Soybean (Glycine max); [19]
  Plant response rating, Soybean: 100
Soybean (Glycine max); preemergence
  Plant response rating (0 to 100), Soybean: 100
Soybean (Glycine max); [20]
  Plant response rating, Soybean: 100
[4]; [18]
  Plant response rating, Velvetleaf: 90
[4]; [19]
  Plant response rating, Velvetleaf: 80
[4]; preemergence
  Plant response rating (0 to 100), Velvetleaf: 100
[4]; [20]
  Plant response rating, Velvetleaf: 100
[5]; [18]
  Plant response rating, Morningglory: 10
[5]; [19]
  Plant response rating, Morningglory: 0
[5]; preemergence
  Plant response rating (0 to 100), Morningglory: 100
[5]; [20]
  Plant response rating, Morningglory: 100
[6]; [18]
  Plant response rating, Ragweed, Common: 100
[6]; [19]
  Plant response rating, Ragweed, Common: 100
[6]; preemergence
  Plant response rating (0 to 100), Ragweed, Common: 100
[6]; [20]
  Plant response rating, Ragweed, Common: 100
[7]; [18]
  Plant response rating, Goosegrass: 100
[7]; [19]
  Plant response rating, Goosegrass: 100
[7]; preemergence
  Plant response rating (0 to 100), Goosegrass: 100
[7]; [20]
  Plant response rating, Goosegrass: 100
Kochia (Kochia scoparia); [18]
  Plant response rating, Kochia: 100
Kochia (Kochia scoparia); [19]
  Plant response rating, Kochia: 90
Kochia (Kochia scoparia); preemergence
  Plant response rating (0 to 100), Kochia: 100
Kochia (Kochia scoparia); [20]
  Plant response rating, Kochia: 100
[8]; [18]
  Plant response rating, Lambsquarters: 100
[8]; [19]
  Plant response rating, Lambsquarters: 100
[8]; preemergence
  Plant response rating (0 to 100), Lambsquarters: 100
[8]; [20]
  Plant response rating, Lambsquarters: 100
[9]; [18]
  Plant response rating, Cocklebur: 10
[9]; [19]
  Plant response rating, Cocklebur: 0
[9]; preemergence
  Plant response rating (0 to 100), Cocklebur: 85
[9]; [20]
  Plant response rating, Cocklebur: 50
[10]; [18]
  Plant response rating, Johnsongrass: 50
[10]; [19]
  Plant response rating, Johnsongrass: 45
[10]; preemergence
  Plant response rating (0 to 100), Johnsongrass: 90
[10]; [20]
  Plant response rating, Johnsongrass: 50
[11]; [18]
  Plant response rating, Surinam grass: 10
[11]; [19]
  Plant response rating, Surinam grass: 10
[11]; preemergence
  Plant response rating (0 to 100), Surinam grass: 100
[11]; [20]
  Plant response rating, Surinam grass: 75
Corn (Zea mays) [12]; [18]
  Plant response rating, Corn: 0
Corn (Zea mays) [12]; [22]
  Plant response rating, Corn: 0
[13]
  Plant response rating, Velvetleaf: 70
[14]
  Plant response rating, Lambsquarters: 90
[15]
  Plant response rating, Morningglory: 70
[16]; [18]
  Plant response rating, Surinam grass: 30
[16]; [22]
  Plant response rating, Surinam grass: 40
[17]; [18]
  Plant response rating, Barnyardgrass: 40
[17]; [22]
  Plant response rating, Barnyardgrass: 90

## CCC(CC)c1ccn(C2CCN(c3ccc(Cl)c(OC)c3)C2=O)n1 (stereo not shown) [Compound 118]
Corn (Zea mays) [1]; [18]
  Plant response rating, Corn: 0
Corn (Zea mays) [1]; [19]
  Plant response rating, Corn: 0
Corn (Zea mays) [1]; preemergence
  Plant response rating (0 to 100), Corn: 35
Corn (Zea mays) [1]; [20]
  Plant response rating, Corn: 10
[2]; [18]
  Plant response rating, Crabgrass: 100
[2]; [19]
  Plant response rating, Crabgrass: 100
[2]; preemergence
  Plant response rating (0 to 100), Crabgrass: 100
[2]; [20]
  Plant response rating, Crabgrass: 100
Nightshade; Rate 62 g/ha, scale 0 to 100
  Plant response rating, Nightshade: 100
Nightshade; [18]
  Plant response rating, Nightshade: 100
Nightshade; [21]
  Plant response rating, Nightshade: 100
[3]; [18]
  Plant response rating, Cupgrass, Woolly: 90
[3]; [19]
  Plant response rating, Cupgrass, Woolly: 40
[3]; preemergence
  Plant response rating (0 to 100), Cupgrass, Woolly: 100
[3]; [20]
  Plant response rating, Cupgrass, Woolly: 100
Soybean (Glycine max); [18]
  Plant response rating, Soybean: 60
Soybean (Glycine max); [19]
  Plant response rating, Soybean: 40
Soybean (Glycine max); preemergence
  Plant response rating (0 to 100), Soybean: 90
Soybean (Glycine max); [20]
  Plant response rating, Soybean: 65
[4]; [18]
  Plant response rating, Velvetleaf: 100
[4]; [19]
  Plant response rating, Velvetleaf: 20
[4]; preemergence
  Plant response rating (0 to 100), Velvetleaf: 100
[4]; [20]
  Plant response rating, Velvetleaf: 100
[5]; [18]
  Plant response rating, Morningglory: 20
[5]; [19]
  Plant response rating, Morningglory: 0
[5]; preemergence
  Plant response rating (0 to 100), Morningglory: 100
[5]; [20]
  Plant response rating, Morningglory: 90
[6]; [19]
  Plant response rating, Ragweed, Common: 60
[6]; preemergence
  Plant response rating (0 to 100), Ragweed, Common: 100
[6]; [20]
  Plant response rating, Ragweed, Common: 80
[7]; [18]
  Plant response rating, Goosegrass: 100
[7]; [19]
  Plant response rating, Goosegrass: 100
[7]; preemergence
  Plant response rating (0 to 100), Goosegrass: 100
[7]; [20]
  Plant response rating, Goosegrass: 100
Kochia (Kochia scoparia); [18]
  Plant response rating, Kochia: 100
Kochia (Kochia scoparia); [19]
  Plant response rating, Kochia: 80
Kochia (Kochia scoparia); preemergence
  Plant response rating (0 to 100), Kochia: 100
Kochia (Kochia scoparia); [20]
  Plant response rating, Kochia: 100
[8]; [18]
  Plant response rating, Lambsquarters: 100
[8]; [19]
  Plant response rating, Lambsquarters: 100
[8]; preemergence
  Plant response rating (0 to 100), Lambsquarters: 100
[8]; [20]
  Plant response rating, Lambsquarters: 100
[9]; [18]
  Plant response rating, Cocklebur: 0
[9]; [19]
  Plant response rating, Cocklebur: 0
[9]; preemergence
  Plant response rating (0 to 100), Cocklebur: 0
[9]; [20]
  Plant response rating, Cocklebur: 0
[10]; [18]
  Plant response rating, Johnsongrass: 40
[10]; [19]
  Plant response rating, Johnsongrass: 0
[10]; preemergence
  Plant response rating (0 to 100), Johnsongrass: 100
[10]; [20]
  Plant response rating, Johnsongrass: 70
[11]; [18]
  Plant response rating, Surinam grass: 10
[11]; [19]
  Plant response rating, Surinam grass: 0
[11]; preemergence
  Plant response rating (0 to 100), Surinam grass: 50
[11]; [20]
  Plant response rating, Surinam grass: 30
Corn (Zea mays) [12]; [18]
  Plant response rating, Corn: 20
Corn (Zea mays) [12]; [22]
  Plant response rating, Corn: 20
[13]
  Plant response rating, Velvetleaf: 40
[14]
  Plant response rating, Lambsquarters: 90
[15]
  Plant response rating, Morningglory: 40
[16]; [18]
  Plant response rating, Surinam grass: 30
[16]; [22]
  Plant response rating, Surinam grass: 40
[17]; [18]
  Plant response rating, Barnyardgrass: 0
[17]; [22]
  Plant response rating, Barnyardgrass: 90
